Results published in US4098891A, “Certain s-triazines as lipogenesis inhibitors” (Shell Oil Company, priority 1977, dated 1978).

Tests used:
swine = test: In vivo test in young, growing pigs fed Compound 1; lipogenesis in adipose tissue biopsy slices; settings: in feed, approximately 50 mg/kg body weight per day for seven days
Method: The effect of compound 1 on inhibition of lipogenesis in swine was confirmed by an in vivo test in which Compound 1 was included in the feed given to young, growing pigs for seven days, at a dosage of approximately 50 milligrams of Compound 1 per kilogram of the pig's body weight per day. Adipose tissue biopsy samples were taken at days 0, 6, 7 and 13 (one week off the drug) and the effect of the test compound on lipogenesis was determined using tissue slices prepared from the biopsy samples, by the procedure used in the in vitro tests.

swine adipose tissue = test: Inhibition of lipogenesis (lipid synthesis from glucose-U-14C) in slices of swine adipose tissue in vitro; type: cell-based; settings: Sus scrofa, 100 micrograms per milliliter, 2 hours at 37° C, 5% DMSO, read-out: Percent Inhibition of lipogenesis (lipid synthesis) compared to control
Text: The manner in which they cause this effect is not known with certainty; it is believed that they interfere with the synthesis of fatty acids in the tissues. Their effectiveness for this purpose has been ascertained in one series of tests by immersing samples of swine adipose tissue in a liquid medium containing radioactive glucose and the test chemical, for a period of time, then isolating the lipid from the treated tissue and determining the up-take of the radioactive carbon by means of scintillation counting techniques. These tests were conducted in swine adipose tissue because in swine, the primary site of lipogenesis--i.e., fatty acid synthesis--appears to be adipose tissue.
Described in more detail, the tests were conducted according to the following general procedure:
150 Milligrams of slices of swine adipose tissue were incubated at 37° C for 2 hours with shaking in 3 milliliters of Krebs-Ringer bicarbonate solution containing one half the normal calcium ion concentration, 60 micromoles of glucose, 0.5 micro-Curie of glucose-U^14 C, 300 microunits of insulin, and 5% dimethyl sulfoxide (DMSO). The test compounds were added as suspensions or solutions in DMSO and were present at a concentration of 100 micrograms per milliliter of the incubation mixture.
The incubation was terminated by addition of 0.25 milliliter of 1 N sulfuric acid. The resulting mixture was extracted with a total of 25 milliliters of chloroform:methanol (2:1, v/v). The extracts were washed according to Folch et al. (J. Biol. Chem., 226, 497-509, (1957)), air dried, and counted in a liquid scintillation counter with 15 milliliters of counting fluid (two parts toluene containing 0.4% w/v New England Nuclear Omnifluor; 1 part Triton X-100. The tests were conducted in triplicate and were accompanied by control tests in which all ingredients,proportions and conditions were the same except that no test compound was included. From the data obtained were calculated the percent inhibition of lipid synthesis by the test compound in each case. The data obtained from the tests are set out in Table 1, as the percent inhibition of lipogenesis compared to the results obtained in the control tests wherein only the test compound was omitted.

[1] = test system: whole epididymal fat pads; test: Inhibition of incorporation of acetate-1-14C into long chain fatty acids in rat epididymal fat pads; type: cell-based, Sprague-Dawley rats; settings: for inhibition at 100 µM: 1 h, 10^-4 M, 60 minutes, acetate-1-14C, read-out: Percent Inhibition of incorporation of acetate into long chain fatty acids
Method: The effect of Compounds 1, 15, 19, 20, 21, 22 and 33 on rats was determined by a modification of the method of D. D. Feller, J. Biol. Chem., 206, 171 (1954): whole epididymal fat pads from 110-150 gram Sprague-Dawley rats were incubated in 4 milliliters of Krebs-Ringer bicarbonate buffer for 30 minutes in an atmosphere of 95% O2 -5% CO2. At the end of the 30 minute period 1 milliliter of Krebs-Ringer bicarbonate buffer containing 8.2 micromoles of acetate (0.1 microcuries of acetate-1-^14 C), 55.0 micromoles of glucose and 50.0 micromoles of succinic acid was added to the incubating mixture and the incubation was continued for 60 minutes more. Test compounds were dissolved in dimethyl sulfoxide (DMSO) and added to the incubating mixture with the fat pad. […] The concentration of the test compound in the liquid medium was 10^-4 M. The incubation was carried out with paired fat pads; the contralateral fat pad from the same rat served as the untreated control.
After incubation, the fat pads were washed in two 5 milliliter aliquots of normal saline and extracted twice with 20 milliliters of chloroform:methanol (2:1) by vigorous shaking for 60 minutes. The extracts were combined and brought to volume with fresh organic solvent in a 50 milliliter volumetric flask containing 1 milliliter of 3N hydrochloric acid. A 5 milliliter aliquot of this mixture was transferred into a 20 milliliter scintillator vial and evaporated to dryness (50° C) to remove traces of acetic acid. To the vials were added 17 ml of scintillator solution consisting of 0.3% diphenyloxazole and 0.01% of 1,4-bis(2,5-phenyloxazolyl)benzene in a solvent of 23% ethanol in toluene. Radioactivity was measured by liquid scintillation counting.
Table II indicates the percent inhibition of incorporation of the acetate into long chain fatty acids--a measure of inhibition of lipogenesis.

rats = test: Rats fed Compound 1 in the diet; lipogenesis by weighing fat pads; type: in vivo; settings: Compound 1 in diet, compared to control rats

Row | SMILES | inhibition at 100 µg/mL (swine adipose tissue) [%] | inhibition at 100 µM [1] [%] | also measured
1 | OCCNc1nc(N2CCOCC2)nc(C(Cl)(Cl)Cl)n1 [Compound 1] | 63 | 57 | symptom of toxicity (swine): No symptom of toxicity due to the test compound was noted; effect on lipogenesis in adipose tissue biopsy samples (swine; day 13 (one week off the drug)): significantly reduced lipogenesis; inhibition of lipogenesis, by weighing fat pads on sacrifice (rats): lipogenesis had been inhibited to a significant extent
2 | OCCCNc1nc(N2CCOCC2)nc(C(Cl)(Cl)Cl)n1 [Compound 2] | 59 | – | –
3 | CC(=O)OCCNc1nc(N2CCOCC2)nc(C(Cl)(Cl)Cl)n1 [Compound 3] | 33 | – | –
4 | CC(O)CNc1nc(N2CCOCC2)nc(C(Cl)(Cl)Cl)n1 (stereo not shown) [Compound 4] | 44 | – | –
5 | COCCCNc1nc(NCCO)nc(C(Cl)(Cl)Cl)n1 [Compound 5] | 44 | – | –
6 | CC(C)OCCCNc1nc(N(CCO)CCO)nc(C(Cl)(Cl)Cl)n1 [Compound 6] | 62 | – | –
7 | CN(CCO)c1nc(N2CCOCC2)nc(C(Cl)(Cl)Cl)n1 [Compound 7] | 32 | – | –
8 | CN(CCO)c1nc(NCCO)nc(C(Cl)(Cl)Cl)n1 [Compound 8] | 58 | – | –
9 | CN(C)C(=O)OCCNc1nc(N2CCOCC2)nc(C(Cl)(Cl)Cl)n1 [Compound 9] | 65 | – | –
10 | COC(=O)CCC(=O)OCCNc1nc(N2CCOCC2)nc(C(Cl)(Cl)Cl)n1 [Compound 10] | 43 | – | –
11 | CC(=O)N1CCN(c2nc(NCC(C)O)nc(C(Cl)(Cl)Cl)n2)CC1 (stereo not shown) [Compound 11] | 72 | – | –
12 | CC(O)CNc1nc(N2CCN(C(=O)Nc3ccccc3)CC2)nc(C(Cl)(Cl)Cl)n1 (stereo not shown) [Compound 12] | 29 | – | –
13 | CC(O)CNc1nc(N2CCN(C(=O)CCC(=O)O)CC2)nc(C(Cl)(Cl)Cl)n1 (stereo not shown) [Compound 13] | 21 | – | inhibition of acetate incorporation (in words) ([1]; same procedure as Table II): not to inhibit acetate incorporation
14 | CC(=O)NCCNc1nc(N2CCOCC2)nc(C(Cl)(Cl)Cl)n1 [Compound 14] | 66 | – | –
15 | O=C(O)CCNc1nc(N2CCOCC2)nc(C(Cl)(Cl)Cl)n1 [Compound 15] | 44 | 29 | –
16 | CCNc1nc(NCCC(=O)N2CCOCC2)nc(C(Cl)(Cl)Cl)n1 [Compound 16] | 38 | – | –
17 | CC(C)(CO)Nc1nc(NCCCN2CCOCC2)nc(C(Cl)(Cl)Cl)n1 [Compound 17] | 43 | – | –
18 | OCCNc1nc(N2CCCC2)nc(C(Cl)(Cl)Cl)n1 [Compound 18] | 63 | – | –
19 | O=C(NCCO)N1CCN(c2nc(NCCO)nc(C(Cl)(Cl)Cl)n2)CC1 [Compound 19] | 75 | 44 | –
20 | CN1CCN(c2nc(NCCO)nc(C(Cl)(Cl)Cl)n2)CC1 [Compound 20] | 27 | 56 | –
21 | OCCNc1nc(N2CCNCC2)nc(C(Cl)(Cl)Cl)n1 [Compound 21] | – | 65 | –
22 | CC(O)CNc1nc(N2CCNCC2)nc(C(Cl)(Cl)Cl)n1 (stereo not shown) [Compound 22] | – | 30 | –
23 | CCNc1nc(N2CCCCC2)nc(C(Cl)(Cl)Cl)n1 [Compound 33] | – | 31 | –
